Results reported in ChEMBL document CHEMBL4316582, “Nitro-Group-Containing Drugs” (J Med Chem, 2019).
Values after ≈ are worked out from the molar mass of the structure shown.

Each molecule was assayed on Mycobacterium tuberculosis (assay: Antitubercular activity against multidrug-resistant Mycobacterium tuberculosis).
Type: functional
`O=[N+]([O-])C1CN2C[C@H](OCc3ccc(OC(F)(F)F)cc3)COC2=N1` (stereo partly drawn) showed an MIC of 0.039 to 0.531 µg/mL (≈ 0.108 to 1.47 µM). With `[O-]/[N+](O)=C1/CN2C[C@H](OCc3ccc(OC(F)(F)F)cc3)COC2=N1` the MIC was 0.039 to 0.531 µg/mL (≈ 0.108 to 1.47 µM). Molecule `FC(F)(F)Oc1ccc(CO[C@@H]2COc3nccn3C2)cc1` has an MIC of 0.039 to 0.531 µg/mL (≈ 0.124 to 1.69 µM).
